{
  "source": "patent US10294202B2",
  "about": "“Pyrrolidinones as herbicides” (FMC Corporation, priority 2013, dated 2019)",
  "key": {"giant foxtail": {"test_system": "giant foxtail", "experiment": "Test A pre-/postemergence herbicide test", "type": "in vivo, Setaria faberii", "procedure,_shortened": "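Planted in loam–sand blend; treated the same day preemergence by directed soil spray, while separately grown plants at one- to two-leaf stage got postemergence spray. Compared visually with untreated controls after approximately 10 days; 100 means complete control.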"}, "sedge, umbrella": {"test_system": "sedge, umbrella", "experiment": "Test B flooded paddy test", "type": "in vivo, Cyperus difformis", "conditions": "250 g ai/ha, Flood; scale of 0 to 100 where 0 is no effect and 100 is complete control", "procedure,_shortened": "(§1)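 Treatment was made at the 2-leaf stage by dosing the standing floodwater, kept 3 cm above soil level for the whole test. Greenhouse exposure lasted 13 to 15 days. Response is a visual percent rating relative to controls, where a dash indicates no test result.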"}, "barnyardgrass [1]": {"test_system": "barnyardgrass", "experiment": "Test B flooded paddy test", "type": "in vivo, Echinochloa crus-galli", "conditions": "250 g ai/ha, Flood; scale of 0 to 100 where 0 is no effect and 100 is complete control", "procedure,_shortened": "as §1"}, "ryegrass, Italian": {"test_system": "ryegrass, Italian", "experiment": "Test C pre-/postemergence herbicide test", "type": "in vivo, Lolium multiflorum", "procedure,_shortened": "(§2)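 Test compounds, formulated in a surfactant-containing non-phytotoxic solvent blend, are applied to seeded loam/sand soil (preemergence) and to young plants at the 1- to 4-leaf stage in peat-based medium (postemergence). Plants stay 13 to 15 days under greenhouse conditions, then are scored visually relative to controls, 0 = no effect, 100 = complete control.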"}, "crabgrass, large": {"test_system": "crabgrass, large", "experiment": "Test C pre-/postemergence herbicide test", "type": "in vivo, Digitaria sanguinalis", "procedure,_shortened": "as §2"}, "johnsongrass": {"test_system": "johnsongrass", "experiment": "Test C pre-/postemergence herbicide test", "type": "in vivo, Sorghum halepense", "procedure,_shortened": "as §2"}, "ragweed": {"test_system": "ragweed", "experiment": "Test C pre-/postemergence herbicide test", "type": "in vivo, Ambrosia elatior", "conditions": "Postemergence", "procedure,_shortened": "as §2"}, "barnyardgrass [2]": {"test_system": "barnyardgrass", "experiment": "Test C pre-/postemergence herbicide test", "type": "in vivo, Echinochloa crus-galli", "procedure,_shortened": "as §2"}, "waterhemp": {"test_system": "waterhemp", "experiment": "Test C pre-/postemergence herbicide test", "type": "in vivo, Amaranthus rudis", "procedure,_shortened": "as §2"}, "oat, wild": {"test_system": "oat, wild", "experiment": "Test C pre-/postemergence herbicide test", "type": "in vivo, Avena fatua", "conditions": "Postemergence", "procedure,_shortened": "as §2"}, "velvetleaf": {"test_system": "velvetleaf", "experiment": "Test C pre-/postemergence herbicide test", "type": "in vivo, Abutilon theophrasti", "procedure,_shortened": "as §2"}, "[3]": {"conditions": "Postemergence, 31 g ai/ha, scale 0 (no effect) to 100 (complete control)"}, "[4]": {"conditions": "Postemergence, 62 g ai/ha, scale 0 to 100 (0 no effect, 100 complete control)"}, "[5]": {"conditions": "Postemergence, 125 g ai/ha, scale 0 to 100 (0 no effect, 100 complete control)"}, "[6]": {"conditions": "Postemergence, 250 g ai/ha, scale 0 to 100 (0 no effect, 100 complete control)"}, "[7]": {"conditions": "Preemergence, 31 g ai/ha, scale 0 to 100, 0 is no effect and 100 is complete control"}, "[8]": {"conditions": "Preemergence, 62 g ai/ha, scale 0 to 100"}, "[9]": {"conditions": "Preemergence, 125 g ai/ha, scale 0 to 100 (0 no effect, 100 complete control)"}, "[10]": {"conditions": "31 g ai/ha, scale 0 (no effect) to 100 (complete control)"}, "[11]": {"conditions": "62 g ai/ha, scale 0 to 100 (0 no effect, 100 complete control)"}, "[12]": {"conditions": "125 g ai/ha, scale 0 to 100 (0 no effect, 100 complete control)"}, "[13]": {"conditions": "250 g ai/ha, scale 0 to 100 (0 no effect, 100 complete control)"}},
  "data": [
    {"compound": "O=C1NCC(c2ccc(F)c(C(F)(F)F)c2)C1C(=O)Nc1ccccc1F", "note": "(racemic) [Compound 76]", "values": [
      {"measurement": "Plant response rating, Foxtail, Giant", "setting": "giant foxtail; Postemergence, 125 g ai/ha, 0 to 100 scale, 0 no effect, 100 complete control", "value": 80},
      {"measurement": "Plant response rating, Foxtail, Giant", "setting": "giant foxtail; Postemergence, 500 g ai/ha, 0 to 100 scale (0 no effect, 100 complete control)", "value": 80},
      {"measurement": "Foxtail, Giant plant response rating", "setting": "giant foxtail; Preemergence, 125 g ai/ha, visual rating on 0 to 100 scale (0 no effect, 100 complete control)", "value": 90},
      {"measurement": "Plant response rating, Foxtail, Giant", "setting": "giant foxtail; preemergence, 500 g ai/ha, 0 to 100 scale", "value": 90},
      {"measurement": "Plant response rating, Sedge, Umbrella", "setting": "sedge, umbrella", "value": 0},
      {"measurement": "Plant response rating, Barnyardgrass", "setting": "barnyardgrass [1]", "value": 0},
      {"measurement": "Plant response rating, Ryegrass, Italian", "setting": "ryegrass, Italian; [3]", "value": 0},
      {"measurement": "Plant response rating, Ryegrass, Italian", "setting": "ryegrass, Italian; [4]", "value": 0},
      {"measurement": "Plant response rating, Ryegrass, Italian", "setting": "ryegrass, Italian; [5]", "value": 0},
      {"measurement": "Plant response rating, Ryegrass, Italian", "setting": "ryegrass, Italian; [6]", "value": 5},
      {"measurement": "Ryegrass, Italian plant response rating", "setting": "ryegrass, Italian; [7]", "value": 0},
      {"measurement": "Plant response rating, Ryegrass, Italian", "setting": "ryegrass, Italian; [8]", "value": 25},
      {"measurement": "Plant response rating, Ryegrass, Italian", "setting": "ryegrass, Italian; [9]", "value": 40},
      {"measurement": "Plant response rating (scale of 0 to 100), Ryegrass, Italian", "setting": "ryegrass, Italian; Preemergence, 250 g ai/ha", "value": 40},
      {"measurement": "Plant response rating, Crabgrass, Large", "setting": "crabgrass, large; [3]", "value": 0},
      {"measurement": "Plant response rating, Crabgrass, Large", "setting": "crabgrass, large; [4]", "value": 50},
      {"measurement": "Plant response rating, Crabgrass, Large", "setting": "crabgrass, large; [5]", "value": 70},
      {"measurement": "Plant response rating, Crabgrass, Large", "setting": "crabgrass, large; [6]", "value": 75},
      {"measurement": "Crabgrass, Large plant response rating", "setting": "crabgrass, large; [7]", "value": 98},
      {"measurement": "Plant response rating, Crabgrass, Large", "setting": "crabgrass, large; [8]", "value": 98},
      {"measurement": "Plant response rating, Crabgrass, Large", "setting": "crabgrass, large; [9]", "value": 100},
      {"measurement": "Plant response rating (scale of 0 to 100), Crabgrass, Large", "setting": "crabgrass, large; Preemergence, 250 g ai/ha", "value": 100},
      {"measurement": "Plant response rating, Johnsongrass", "setting": "johnsongrass; [3]", "value": 0},
      {"measurement": "Plant response rating, Johnsongrass", "setting": "johnsongrass; [4]", "value": 0},
      {"measurement": "Plant response rating, Johnsongrass", "setting": "johnsongrass; [5]", "value": 0},
      {"measurement": "Plant response rating, Johnsongrass", "setting": "johnsongrass; [6]", "value": 0},
      {"measurement": "Johnsongrass plant response rating", "setting": "johnsongrass; [7]", "value": 20},
      {"measurement": "Plant response rating, Johnsongrass", "setting": "johnsongrass; [8]", "value": 45},
      {"measurement": "Plant response rating, Johnsongrass", "setting": "johnsongrass; [9]", "value": 45},
      {"measurement": "Plant response rating (scale of 0 to 100), Johnsongrass", "setting": "johnsongrass; Preemergence, 250 g ai/ha", "value": 80},
      {"measurement": "Plant response rating, Ragweed", "setting": "ragweed; [10]", "value": 25},
      {"measurement": "Plant response rating, Ragweed", "setting": "ragweed; [11]", "value": 40},
      {"measurement": "Plant response rating, Ragweed", "setting": "ragweed; [12]", "value": 40},
      {"measurement": "Plant response rating, Ragweed", "setting": "ragweed; [13]", "value": 55},
      {"measurement": "Plant response rating, Barnyardgrass", "setting": "barnyardgrass [2]; [3]", "value": 0},
      {"measurement": "Plant response rating, Barnyardgrass", "setting": "barnyardgrass [2]; [4]", "value": 35},
      {"measurement": "Plant response rating, Barnyardgrass", "setting": "barnyardgrass [2]; [5]", "value": 85},
      {"measurement": "Plant response rating, Barnyardgrass", "setting": "barnyardgrass [2]; [6]", "value": 90},
      {"measurement": "Barnyardgrass plant response rating", "setting": "barnyardgrass [2]; [7]", "value": 80},
      {"measurement": "Plant response rating, Barnyardgrass", "setting": "barnyardgrass [2]; [8]", "value": 85},
      {"measurement": "Plant response rating, Barnyardgrass", "setting": "barnyardgrass [2]; [9]", "value": 95},
      {"measurement": "Plant response rating (scale of 0 to 100; 0 is no effect, 100 is complete control), Barnyardgrass", "setting": "barnyardgrass [2]; Preemergence, 250 g ai/ha", "value": 98},
      {"measurement": "Plant response rating, Waterhemp", "setting": "waterhemp; [3]", "value": 0},
      {"measurement": "Plant response rating, Waterhemp", "setting": "waterhemp; [4]", "value": 5},
      {"measurement": "Plant response rating, Waterhemp", "setting": "waterhemp; [5]", "value": 5},
      {"measurement": "Plant response rating, Waterhemp", "setting": "waterhemp; [6]", "value": 10},
      {"measurement": "Waterhemp plant response rating", "setting": "waterhemp; [7]", "value": 50},
      {"measurement": "Plant response rating, Waterhemp", "setting": "waterhemp; [8]", "value": 50},
      {"measurement": "Plant response rating, Waterhemp", "setting": "waterhemp; [9]", "value": 50},
      {"measurement": "Plant response rating (scale of 0 to 100), Waterhemp", "setting": "waterhemp; Preemergence, 250 g ai/ha", "value": 60},
      {"measurement": "Plant response rating, Oat, Wild", "setting": "oat, wild; [10]", "value": 0},
      {"measurement": "Plant response rating, Oat, Wild", "setting": "oat, wild; [11]", "value": 0},
      {"measurement": "Plant response rating, Oat, Wild", "setting": "oat, wild; [12]", "value": 0},
      {"measurement": "Plant response rating, Oat, Wild", "setting": "oat, wild; [13]", "value": 0},
      {"measurement": "Plant response rating, Velvetleaf", "setting": "velvetleaf; [3]", "value": 0},
      {"measurement": "Plant response rating, Velvetleaf", "setting": "velvetleaf; [4]", "value": 0},
      {"measurement": "Plant response rating, Velvetleaf", "setting": "velvetleaf; [5]", "value": 0},
      {"measurement": "Plant response rating, Velvetleaf", "setting": "velvetleaf; [6]", "value": 0},
      {"measurement": "Velvetleaf plant response rating", "setting": "velvetleaf; [7]", "value": 0},
      {"measurement": "Plant response rating, Velvetleaf", "setting": "velvetleaf; [8]", "value": 0},
      {"measurement": "Plant response rating, Velvetleaf", "setting": "velvetleaf; [9]", "value": 25},
      {"measurement": "Plant response rating (scale of 0 to 100), Velvetleaf", "setting": "velvetleaf; Preemergence, 250 g ai/ha", "value": 35}
    ]}
  ]
}
